The experiment deals with HPCs isolated from wild type, E4bp4 knockout and heterozygous mice. The experiment in a line: NK cell production from HPCs isolated from WT, E4bp4 Het and E4bp4 KO mice. In kind it is cell-based, mouse. The procedure: FIG. 7: HPCs isolated from either wild type (WT), E4bp4 knockout (KO) or heterozygous (Het) mice were cultured with the addition of 5 or 10 μM SR8278. At Day 9, percentage of NK cells was quantified using flow cytometry. Graph showing relative mature mouse NK cell (NK1.1^+ CD3^−) production compared to the ‘No drug’ control in experiments with (A) WT, (B) Het and (C) E4bp4 KO mice. (D) Representative flow cytometry results with percentage of NK cells shown for the addition of 10 μM SR8278. Results were averaged from two experiments with four repeats each and the error bars represent the mean+SD. Asterisks indicate significant differences from the two annotated results (* is P≤0.01 and ** is P≤0.001) based on Mann-Whitney test.
Following the experiment with GSK4112, it was predicted that SR8278 acts through the pathway involving REV-ERB and E4bp4. […] Cell cultures were performed as previously (FIG. 3), where SR8278 was added on Day 2 of the culture and NK cell production was measured by flow cytometry. […]
Cells to be analysed by flow cytometry were passed through 40 μm cell strainers to remove clumps and washed with PBS buffer, centrifuged at 800 g for 2 minutes and resuspended in 100 μl fluorescent activated cell sorting (FACS) buffer (PBS plus 1% BSA) with appropriate fluorochrome conjugated antibodies at a dilution of 1 in 300. […]

Experimental findings from patent publication US12496298B2, “Natural killer cells” (Imperial College Innovations Limited, priority 2017, dated 2025) are described below.

Entries after “also recorded” stand apart in the source; their conditions may differ.

For `CCOC(=O)C1Cc2ccccc2CN1C(=O)c1ccc(SC)s1` (centres unmarked) [SR8278, 1,2,3,4-Tetrahydro-2-[[5-(methylthio)-2-thienyl]carbonyl]-3-isoquinolinecarboxylic acid ethyl ester], for the setting “HPCs from E4bp4 KO mice, regardless of concentration”, the “percentage of NK cells produced” value is recorded as “absent of NK cells; also recorded: no effect”. For the same compound, the “percentage of NK cells produced compared to 'No drug' control” value (HPCs from WT mice, 5 μM and 10 μM added Day 2) is “largest significant increase”.
